{"source": "patent US20250376441A1", "about": "“NOVEL COMPOUND AND PHARMACEUTICAL COMPOSITION COMPRISING SAME AS ACTIVE INGREDIENT” (Industry-Academic Cooperation Foundation, Yonsei University, priority 2017, published 2025)", "key": {"[1]": {"test_system": "Salmonella typhimurium TA100", "experimental": "(§1) For each strain, treatment with a single concentration of 200 μg/plate was performed in triplicate and mutation was checked."}, "[2]": {"test_system": "amyloid-beta peptide1-42 degenerative neurological disease-induced mice", "test": "Probe test (Morris water maze, platform removed)", "format": "in vivo, ICR mice", "conditions": "donepezil group, 90 seconds without platform, p<0.01 vs beta-amyloid group", "experimental": "(§2) In order to induce a degenerative neurological disease, the experimental animals of Preparatory Example 1 were anesthetized by inhalation with 2.5% isoflurane. Then, 1 μg of amyloid-beta peptide1-42, a degenerative neurological disease-inducing substance, was administered to the animals at both hippocampal positions (AP: −2.3, L: ±2.0, H: −1.5) using a stereotaxic apparatus. […] For the administration, 1 μl was injected, at a flow rate of 0.2 μl/min, with a […] gas-tight glass syringe (Hamilton, Reno, NV, USA) using a perfusion pump (Pump 22, Harvard Apparatus, South Natick, MA, USA). Subsequently, the syringe was allowed to stand for 5 minutes and then removed.\n(§3) Then, a degenerative neurological disease was induced as in Preparation Example 2.\n(§4) A circular pool (diameter: 120 cm, height: 75 cm) was filled with water to a depth of 25±1 cm as in FIG. 4, and a 24 cm platform was prepared by hiding it 1 cm below the water surface. Space cues were installed on the four sides of the wall so that the aminals can identify locations, and skimmed milk powder was dissolved into water so that the animals cannot identify the platform with naked eyes. One day before the experiment, all the experimental animals were allowed to swim freely for 1 minute in a water bath having no platform, so that the animals can adapt to the swimming situation. After that, a test group was allowed to start, in any order, from two of the three quadrants except the quadrant where the platform was placed, and allowed to find the platform for 60 seconds. In a case where an animal finds the platform, the animal was allowed to stay thereon for 20 seconds. […] As soon as end of the position learning time, which is the 20-second staying time, the animal was allowed to start again from any quadrant, and the time and distance to reach the platform were measured. The procedure was performed four times a day, and all procedures were taken with a camera and analyzed with a video tracking system (Panlab, USA). Probe trials were made on the fifth day after the four-day experiment in toal was completed. The test group was allowed to swim freely for 90 seconds without the platform, thereby performing evaluation on whether the test group holds a memory of the platform location. The results are illustrated in FIGS. 5 to 7.\nThe results are illustrated in FIGS. 8 and 9."}, "[3]": {"test_system": "amyloid-beta peptide1-42 degenerative neurological disease-induced mice", "test": "Morris water maze test", "format": "in vivo, ICR mice", "conditions": "donepezil group", "excerpt": "Six-week-old ICR mice (male) were purchased, and then examined for general health for 6 days while subjecting them to quarantine and acclimation under an environment of animal breeding room. Then, healthy individuals were selected and used for the experiment. Identification of each individual was made by marking the number of each individual on the tail using a permanent marker, and identification of a breeding box was made by attaching an individual identification card on which test number, test substance name, test item, date of acquisition, acclimation period, date of grouping, test period, sex/animal number, and person in charge are indicated.\nas §2, §3\nAfter induction of the degenerative neurological disease, the following test was conducted after a one-day recovery period passed.\nas §4"}, "[4]": {"target": "AMP-activated protein kinase (AMPK)", "test": "AMPK kinase assay (luminescence, purified enzyme, ATP, substrate peptide)", "format": "biochemical", "conditions": "AMPK activation", "experimental": "In order to identify an effect of the Preparation Example 6 having the highest docking score in Experimental Example 1 on activity of the AMP-activated protein kinase (AMPK), a kinase assay was performed. The kinase assay was performed as follows. […] Then, purified AMP-activated protein kinase and ATP were allowed to react on a substrate peptide for the AMP-activated protein kinase, and degrees of luminescence thereof were shown as EC50 in Table 3 and FIG. 3."}, "[5]": {"test_system": "Salmonella typhimurium TA98", "test": "Ames reverse mutation test, TA98", "experimental": "as §1"}, "Half-life test": {"test": "Half-life test", "excerpt": "In order to identify whether the Preparation Example 6 according to the present invention can be orally administered, a half-life of the compound was checked. […] The results are illustrated in FIG. 18."}}}
{"smiles": "[N-]=[N+]=[N-]", "note": "[Sodium azide, sodium azide, reference compound]", "values": [{"measurement": "Reverse mutation [factor] w/o S-9 mix", "setting": "[1]; TA100, without S-9, factor versus control", "result": "[5.5]"}, {"measurement": "Reverse mutation/dish (mean ± SD) w/o S-9 mix", "setting": "[1]; TA100, without S-9, Preparation Example 6 at 200 μg/plate, Sodium azide concentration 1", "result": "618 ± 13"}]}
{"smiles": "COc1cc2c(cc1OC)C(=O)C(CC1CCN(Cc3ccccc3)CC1)C2", "note": "(stereo not drawn) [donepezil, reference compound]", "values": [{"measurement": "swimming time in the target quadrant", "setting": "[2]", "result": "39.04 (±8.68) seconds"}, {"measurement": "maximum time to find the platform (escape latency)", "setting": "[3]", "result": "111.99 (±22.59) seconds"}, {"measurement": "minimum time to find the platform (escape latency)", "setting": "[3]", "result": "30.82 (±13.96) seconds"}]}
{"smiles": "NC(=O)c1ncn([C@@H]2O[C@H](CO)[C@@H](O)[C@H]2O)c1N", "note": "[AICAR, reference compound]", "values": [{"measurement": "EC50", "setting": "[4]", "result": 299, "unit": "nM"}]}
{"smiles": "O=[N+]([O-])c1ccc2c(c1)Cc1ccccc1-2", "note": "[2-Nitrofluorene, 2-nitrofluorene, reference compound]", "values": [{"measurement": "Reverse mutation [factor] w/o S-9 mix", "setting": "[5]; TA98, without S-9, factor versus control", "result": "915.0]"}, {"measurement": "Reverse mutation/dish (mean ± SD) w/o S-9 mix", "setting": "[5]; TA98, without S-9, Preparation Example 6 at 200 μg/plate, 2-Nitrofluorene concentration 2", "result": "290 ± 8"}]}
{"smiles": "Oc1ccc(C=Cc2cc(O)cc(O)c2)cc1", "note": "[Resveratrol, reference compound]", "values": [{"measurement": "half-life", "setting": "Half-life test", "result": "8 to 10", "unit": "min"}]}
